{"source": "PubChem BioAssay (NCI)", "assay_in_all_cases": "NCI-60 cell line screen, 384-well format", "key": {"MCF7 breast": {"tested_on": "MCF7 breast"}, "MOLT-4 leukemia": {"tested_on": "MOLT-4 leukemia"}, "HL-60(TB) leukemia": {"tested_on": "HL-60(TB) leukemia"}, "SK-OV-3 ovarian": {"tested_on": "SK-OV-3 ovarian"}, "NCI-H460 NSCLC": {"tested_on": "NCI-H460 NSCLC"}, "M14 melanoma": {"tested_on": "M14 melanoma"}, "SNB-19 CNS": {"tested_on": "SNB-19 CNS"}, "NCI-H522 lung": {"tested_on": "NCI-H522 lung"}, "HS 578T breast": {"tested_on": "HS 578T breast"}, "NCI-H322M lung": {"tested_on": "NCI-H322M lung"}, "SW-620 colon": {"tested_on": "SW-620 colon"}, "NCI-H23 lung": {"tested_on": "NCI-H23 lung"}, "KM12 colon": {"tested_on": "KM12 colon"}}, "note": "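Abbreviation: GI50, concentration required for 50% inhibition of growth. TGI marks complete inhibition of growth.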", "data": [{"smiles": "C[C@H](NC(=O)CCC(F)(F)F)C(=O)N[C@@H]1C(=O)N(CCO)c2ncccc2-c2ccccc21", "values": [{"measurement": "GI50", "setting": "MCF7 breast", "result": "> 100", "unit": "µM"}, {"measurement": "TGI", "setting": "MCF7 breast", "result": "> 100", "unit": "µM"}, {"measurement": "GI50", "setting": "MOLT-4 leukemia", "result": 29.8, "unit": "µM"}, {"measurement": "TGI", "setting": "MOLT-4 leukemia", "result": "> 100", "unit": "µM"}, {"measurement": "GI50", "setting": "HL-60(TB) leukemia", "result": 54.5, "unit": "µM"}, {"measurement": "TGI", "setting": "HL-60(TB) leukemia", "result": "> 100", "unit": "µM"}, {"measurement": "GI50", "setting": "SK-OV-3 ovarian", "result": "> 100", "unit": "µM"}, {"measurement": "TGI", "setting": "SK-OV-3 ovarian", "result": "> 100", "unit": "µM"}, {"measurement": "GI50", "setting": "NCI-H460 NSCLC", "result": "> 100", "unit": "µM"}, {"measurement": "TGI", "setting": "NCI-H460 NSCLC", "result": "> 100", "unit": "µM"}, {"measurement": "GI50", "setting": "M14 melanoma", "result": "> 100", "unit": "µM"}, {"measurement": "TGI", "setting": "M14 melanoma", "result": "> 100", "unit": "µM"}, {"measurement": "GI50", "setting": "SNB-19 CNS", "result": "> 100", "unit": "µM"}, {"measurement": "TGI", "setting": "SNB-19 CNS", "result": "> 100", "unit": "µM"}, {"measurement": "GI50", "setting": "NCI-H522 lung", "result": "> 100", "unit": "µM"}, {"measurement": "TGI", "setting": "NCI-H522 lung", "result": "> 100", "unit": "µM"}, {"measurement": "GI50", "setting": "HS 578T breast", "result": "> 100", "unit": "µM"}, {"measurement": "TGI", "setting": "HS 578T breast", "result": "> 100", "unit": "µM"}, {"measurement": "GI50", "setting": "NCI-H322M lung", "result": "> 100", "unit": "µM"}, {"measurement": "TGI", "setting": "NCI-H322M lung", "result": "> 100", "unit": "µM"}, {"measurement": "GI50", "setting": "SW-620 colon", "result": 87.1, "unit": "µM"}, {"measurement": "TGI", "setting": "SW-620 colon", "result": "> 100", "unit": "µM"}, {"measurement": "GI50", "setting": "NCI-H23 lung", "result": "> 100", "unit": "µM"}, {"measurement": "TGI", "setting": "NCI-H23 lung", "result": "> 100", "unit": "µM"}, {"measurement": "GI50", "setting": "KM12 colon", "result": "> 100", "unit": "µM"}, {"measurement": "TGI", "setting": "KM12 colon", "result": "> 100", "unit": "µM"}]}]}
